Reference: patent US20190252042A1, “INDENTIFICATION AND ANTIBIOTIC CHARACTERIZATION OF PATHOGENS IN METAGENOMIC SAMPLE” (BIOMÉRIEUX, priority 2016, published 2019)

Legend:
E aerogenes = experiment: Antibiotic Susceptibility Testing (AST) profile by classical microbiology, BAL sample 1; assay type: cell-based; settings: positive BAL metagenomic sample 1, pathogen E aerogenes
Source text: Three validation studies of the metagenomic analysis according to the invention have been done. The first validation study relies on in silico simulated metagenomes (validation study 1), the second validation study is a set of 3 positive miniBAL metagenomic samples for which only the culture identification is available (validation study 2), and the third validation study is a set 2 positive BAL metagenomic samples with identification and AST profiles available (validation study 3). For all the evaluation, Kraken is used for taxonomic binning and ARD binning (steps 22, 24) and IDBA-UD is used for assembly (step 28).
In Table 3, one notes that both pipelines give very similar results and results coherent with classical microbiology, at least for identification results. Both pipelines give similar results, probably because the ARD retrieved are present in the reference sequences of the 2 pathogens, ie. AmpC must be present in the reference sequences of E. aerogenes, and ANT(9)-1A in the reference sequences of S aureus.

S aureus = experiment: Antibiotic Susceptibility Testing (AST) profile by classical microbiology, BAL sample 2; assay type: cell-based; settings: positive BAL metagenomic sample 2, pathogen S aureus

Row | Compound | AST profile (E aerogenes) | AST profile (S aureus)
1 | CC1(C)S[C@@H]2[C@H](NC(=O)[C@H](N)c3ccc(O)cc3)C(=O)N2[C@H]1C(=O)O [amoxiciline] | resistance: amoxiciline, clavunalate | –
2 | CO/N=C(\C(=O)N[C@@H]1C(=O)N2C(C(=O)O)=C(COC(N)=O)CS[C@H]12)c1ccco1 [cefuroxime] | intermediate resistance: cefuroxime | –
3 | O=C(O)[C@H]1/C(=C/CO)O[C@@H]2CC(=O)N21 [clavunalate] | resistance: amoxiciline, clavunalate | –
4 | peniciline | – | resistance: peniciline, clindamycine
